Results on 10 compounds are retold here after ChEMBL document CHEMBL3217430, “Experimental validation of in silico target predictions on synergistic protein targets” (Medchemcomm, 2013).

In test [1] the test system is HeLa. As to the kind of experiment: Cytotoxicity against human HeLa cells assessed as cell viability at 120 uM after 3 days by CellTiter96 Aqueous One Solution assay (reference value: 100%). It is filed as functional. To be noted: 72 h, read-out: Activity.
The next test concerns the target T1, DNA topoisomerase 1 (Homo sapiens, UniProt P11387).
T1 sequence (P11387 whole entry): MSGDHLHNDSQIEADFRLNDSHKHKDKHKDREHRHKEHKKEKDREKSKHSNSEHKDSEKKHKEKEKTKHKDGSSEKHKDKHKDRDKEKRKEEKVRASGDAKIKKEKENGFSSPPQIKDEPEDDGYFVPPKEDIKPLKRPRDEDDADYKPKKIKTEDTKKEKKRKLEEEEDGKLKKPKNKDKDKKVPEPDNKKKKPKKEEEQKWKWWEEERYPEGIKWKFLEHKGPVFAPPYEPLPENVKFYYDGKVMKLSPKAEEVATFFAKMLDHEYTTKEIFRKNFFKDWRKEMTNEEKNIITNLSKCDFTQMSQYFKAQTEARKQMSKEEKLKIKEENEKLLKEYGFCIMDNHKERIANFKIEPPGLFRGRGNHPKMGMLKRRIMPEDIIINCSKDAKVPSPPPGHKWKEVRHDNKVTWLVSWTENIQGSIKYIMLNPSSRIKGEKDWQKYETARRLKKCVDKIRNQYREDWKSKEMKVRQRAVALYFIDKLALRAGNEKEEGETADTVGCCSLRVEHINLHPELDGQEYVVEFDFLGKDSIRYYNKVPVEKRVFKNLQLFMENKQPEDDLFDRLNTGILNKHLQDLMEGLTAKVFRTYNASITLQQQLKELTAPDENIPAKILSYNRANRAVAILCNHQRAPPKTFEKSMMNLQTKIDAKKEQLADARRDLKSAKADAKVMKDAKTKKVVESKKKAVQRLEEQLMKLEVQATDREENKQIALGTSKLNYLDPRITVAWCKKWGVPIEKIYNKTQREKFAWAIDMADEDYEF
As to the kind of experiment: Inhibition of human topoisomerase 1 activity assessed as DNA triplex formation and presence of supercoiled DNA by microplate assay.

For test [2], the system named is HeLa. As to the kind of experiment: Cytotoxicity against human HeLa cells assessed as cell viability at 120 uM after 3 days by CellTiter96 Aqueous One Solution assay. It is filed as functional, cell-based.
The next test has as its system Escherichia coli. Put plainly: Inhibition of Escherichia coli topoisomerase assessed as bacterial proliferation at 200 uM after 24 hrs by visual inspection assay.
In test [3] the target is T2, ATP-dependent translocase ABCB1 (Homo sapiens, UniProt P08183). Put plainly: Inhibition of P-glycoprotein 1 in human HeLa cells assessed as intracellular accumulation of Hoechst 33342 dye after 30 mins by fluorescence microscopic analysis. Format: cell-based.
T2 sequence (P08183 whole entry): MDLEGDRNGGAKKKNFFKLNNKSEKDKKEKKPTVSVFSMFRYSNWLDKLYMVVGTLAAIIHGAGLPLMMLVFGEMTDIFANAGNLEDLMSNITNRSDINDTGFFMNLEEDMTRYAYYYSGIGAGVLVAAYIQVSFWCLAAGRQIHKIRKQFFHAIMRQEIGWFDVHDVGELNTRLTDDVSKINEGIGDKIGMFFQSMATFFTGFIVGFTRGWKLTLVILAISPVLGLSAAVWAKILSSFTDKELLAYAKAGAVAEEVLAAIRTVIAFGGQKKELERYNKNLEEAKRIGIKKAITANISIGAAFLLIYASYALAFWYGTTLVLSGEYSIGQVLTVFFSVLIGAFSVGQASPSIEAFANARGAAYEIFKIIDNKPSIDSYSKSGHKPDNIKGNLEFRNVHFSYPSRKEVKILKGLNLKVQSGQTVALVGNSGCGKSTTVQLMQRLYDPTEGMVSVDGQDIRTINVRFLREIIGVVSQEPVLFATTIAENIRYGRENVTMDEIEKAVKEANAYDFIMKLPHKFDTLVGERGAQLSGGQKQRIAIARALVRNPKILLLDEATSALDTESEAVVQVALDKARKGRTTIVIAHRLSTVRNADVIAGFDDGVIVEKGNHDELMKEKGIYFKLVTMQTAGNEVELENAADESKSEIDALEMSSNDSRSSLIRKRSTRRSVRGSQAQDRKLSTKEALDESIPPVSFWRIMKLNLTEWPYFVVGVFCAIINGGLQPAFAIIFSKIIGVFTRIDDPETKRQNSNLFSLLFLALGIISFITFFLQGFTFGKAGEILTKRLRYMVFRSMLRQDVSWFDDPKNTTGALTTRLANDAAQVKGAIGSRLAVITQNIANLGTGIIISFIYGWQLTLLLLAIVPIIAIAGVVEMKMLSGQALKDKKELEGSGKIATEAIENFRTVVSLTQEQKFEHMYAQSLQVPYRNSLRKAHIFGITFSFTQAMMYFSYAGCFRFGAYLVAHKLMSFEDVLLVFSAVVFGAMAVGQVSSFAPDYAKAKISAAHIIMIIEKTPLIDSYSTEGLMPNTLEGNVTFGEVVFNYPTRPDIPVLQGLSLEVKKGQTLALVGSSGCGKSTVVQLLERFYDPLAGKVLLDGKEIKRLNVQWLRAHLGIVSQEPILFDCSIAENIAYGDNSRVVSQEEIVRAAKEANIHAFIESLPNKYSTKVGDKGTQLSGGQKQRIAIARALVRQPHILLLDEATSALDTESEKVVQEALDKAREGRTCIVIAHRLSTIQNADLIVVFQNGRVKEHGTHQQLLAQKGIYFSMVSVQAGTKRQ
The subject of test [4] is HeLa. As to the kind of experiment: Effect on apoptosis in human HeLa cells assessed as cell morphology and extracellular membrane after 48 hrs. It is filed as functional, cell-based.
Test [5] addresses T2, ATP-dependent translocase ABCB1. As to the kind of experiment: Inhibition of human P-glycoprotein 1 ATPase activity assessed as remaining ATP level by luminescence analysis.

Calls of active or inactive are those of the source. The calls are words filed in the database; no cut-off is given here.

For the compound `O=c1c(-c2ccc3c(c2)OCCO3)coc2cc(OC3OC(CO)C(O)C(O)C3O)ccc12` (centres undefined), in the test on HeLa [1], the viability at 120 µM was determined as 82%. As usually defined, the IC50 is the concentration that gives 50% inhibition. For `CN(C=C(C#N)C#N)CC(O)C(O)C(O)C(O)CO` (centres undefined), on DNA topoisomerase 1, the 50% inhibitory concentration (IC50) came out at 47.5 µM. Also, the outcome in the test on HeLa [2] was inactive. The inhibition result with Escherichia coli is “inactive”. As for `CC(=O)OCC(OC(C)=O)C(OC(C)=O)C(O)C1SCC(C(=O)N(C)C)N1C(C)=O` (centres undefined), the result in the test on HeLa [2] was inactive. On the same count and under the same terms, under `CC(=O)OCC(OC(C)=O)C(OC(C)=O)C(OC(C)=O)C(OC(C)=O)C(OC(C)=O)OC(C)=O` (centres undefined) stands “inactive”.

Turning to `CC(=O)c1ccc(OCC(O)CN2CCN(C(c3ccccc3)c3ccccc3)CC2)cc1` (centres undefined), the viability at 120 µM in the test with HeLa [1] came out at 37%. Take `CCSC(SCC)C(O)C(O)C(O)C(O)CO` (centres undefined): the result in the test with HeLa [2] was inactive. For `NC(=O)c1ncn([C@@H]2O[C@H](CO)[C@@H](O)[C@H]2O)n1` [RIBAVIRIN], the IC50 on DNA topoisomerase 1 was determined as 65.9 µM. The inhibition result in the test with Escherichia coli was “inactive”. Regarding `CO[C@@H]1O[C@H](CO)[C@H](O)[C@H](O)[C@H]1O`, in the test on HeLa [2], the result was inactive. With `CC(=O)OCC1OC(Sc2ccccc2)C(OC(C)=O)C(OC(C)=O)C1OC(C)=O` (centres undefined), the IC50 turned out to be 15.4 µM in test [3] and 37 µM in test [5]. For the same compound, the result with HeLa [4] was inactive. The viability at 120 µM with HeLa [1] came to 87%. For `CC(=O)OC[C@H](OC(C)=O)[C@H](OC(C)=O)[C@@H](CNC(=O)c1ccc(C)c(C)c1)OC(C)=O`, the IC50 in test [3] stood at 15.5 µM; in test [5], 28 µM. In addition, the outcome with HeLa [4] and in the test with HeLa [2] was inactive.
